Key:
Assay in all cases: Example B1 herbicidal action, post-emergence, 96-cell seed trays, climatic chamber
Type in all cases: in vivo
[1] = tested on: Nasturtium officinale (NAAOF); design: scale not given here; conditions: Application post-emergence, 1000 mg/l spray equivalent to 1000 g/ha, evaluated after 9 days (100=total damage to plant, 0=no damage to plant)
Description: (§1) Seeds of a variety of test species were sown in sterilised standard soil in seed trays each having 96 cells. After cultivation for 8 to 9 days cultivation (post-emergence) under controlled conditions in a climatic chamber (cultivation at 23/17° C., day/night; 13 hours light; 50-60% humidity), the plants were treated with an aqueous spray solution of 1000 mg/l of the active ingredient dissolved in 10% DMSO (dimethyl sulfoxide, CAS RN 67-68-5) as a solvent, equivalent to 1000 g/ha. The plants were grown in the climatic chamber after application at (24/19° C., day/night; 13 hours light; 50-60% humidity) and watered twice daily. After 9 days until the test was evaluated (100=total damage to plant, 0=no damage to plant)

[2] = tested on: Amaranthus retroflexus (AMARE); conditions: Application post-emergence, 1000 mg/l spray equivalent to 1000 g/ha, evaluated after 9 days
Description: as §1

Stellaria media (STEME) = conditions: Application post-emergence, 1000 mg/l spray equivalent to 1000 g/ha, evaluated after 9 days (100=total damage to plant, 0=no damage to plant)
Description: as §1

Solanum nigrum (SOLNI) = conditions: Application post-emergence, 1000 mg/l spray equivalent to 1000 g/ha, evaluated after 9 days (100=total damage to plant, 0=no damage to plant)
Description: as §1

SMILES	damage to plant, Nasturtium officinale (NAAOF) [1]	damage to plant, Amaranthus retroflexus (AMARE) [2]	damage to plant, Stellaria media (STEME) (Stellaria media (STEME))	damage to plant, Solanum nigrum (SOLNI) (Solanum nigrum (SOLNI))
CCC(=O)Oc1c(-c2ccc(F)cc2Cl)c(=O)[nH]c2nccnc12 [Compound B3]	0	8	2	0
CC(=O)Oc1c(-c2ccccc2OC(F)(F)F)c(=O)[nH]c2nccnc12 [Compound B8]	3	1	3	2
CC(=O)Oc1c(-c2c(Cl)cccc2Cl)c(=O)[nH]c2nccnc12 [Compound B10]	6	8	0	0
CCC(=O)Oc1c(-c2c(Cl)cccc2Cl)c(=O)[nH]c2nccnc12 [Compound B11]	3	8	1	0
CC(=O)Oc1c(-c2c(Cl)cc(C(F)(F)F)cc2Cl)c(=O)[nH]c2nccnc12 [Compound B15]	7	0	2	0
CC(C)(C)C(=O)Oc1c(-c2ccccc2OC(F)(F)F)c(=O)[nH]c2nccnc12 [Compound B17]	0	0	0	2
CC(=O)Oc1c(-c2c(C)cc(C)cc2C)c(=O)[nH]c2nccnc12 [Compound B33]	5	5	3	0
Cc1ccc(Cl)c(-c2c(OC(=O)C(C)(C)C)c3nccnc3[nH]c2=O)c1F [Compound B37]	0	0	5	0
CC(C)C(=O)Oc1c(-c2cc(C(F)(F)F)ccc2Cl)c(=O)[nH]c2nccnc12 [Compound B38]	4	4	0	0
O=C(Oc1c(-c2c(F)ccc(F)c2Cl)c(=O)[nH]c2nccnc12)c1ccc([N+](=O)[O-])cc1 [Compound B40]	0	6	1	0
CC(C)(C)C(=O)Oc1c(-c2c(Cl)cc(C(F)(F)F)cc2Cl)c(=O)[nH]c2nccnc12 [Compound B41]	2	2	1	2
CCn1c(=O)c(-c2ccc(F)cc2Cl)c(OC(=O)C(C)C)c2nccnc21 [Compound C3]	7	0	6	5
CC(C)C(=O)Oc1c(-c2ccc(F)cc2Cl)c(=O)n(C)c2nccnc12 [Compound C5]	7	7	8	2
CCn1c(=O)c(-c2ccc(Cl)cc2Cl)c(OC(C)=O)c2nccnc21 [Compound C6]	8	8	9	5
COCCn1c(=O)c(-c2ccc(Cl)cc2Cl)c(OC(C)=O)c2nccnc21 [Compound C9]	2	0	2	3
CCn1c(=O)c(-c2c(F)ccc(F)c2Cl)c(OC(=O)C(C)C)c2nccnc21 [Compound C11]	8	9	8	5
CCn1c(=O)c(-c2c(F)ccc(F)c2Cl)c(OC(C)=O)c2nccnc21 [Compound C13]	8	8	8	2
C=CCn1c(=O)c(-c2c(F)ccc(F)c2Cl)c(OC(C)=O)c2nccnc21 [Compound C14]	8	7	8	4
COCCn1c(=O)c(-c2c(F)ccc(F)c2Cl)c(OC(=O)C(C)C)c2nccnc21 [Compound C15]	6	0	5	1
CC(C)n1c(=O)c(-c2c(F)ccc(F)c2Cl)c(OC(=O)C(C)(C)C)c2nccnc21 [Compound C19]	4	0	6	3
CCn1c(=O)c(-c2c(F)ccc(F)c2Cl)c(OC(=O)C(C)(C)C)c2nccnc21 [Compound C21]	8	8	8	0
C=CCCn1c(=O)c(-c2ccccc2OC(F)(F)F)c(OC(C)=O)c2nccnc21 [Compound C22]	8	1	5	2
CC(C)n1c(=O)c(-c2ccccc2OC(F)(F)F)c(OC(=O)C(C)(C)C)c2nccnc21 [Compound C23]	0	0	0	4
CC(=O)Oc1c(-c2ccccc2OC(F)(F)F)c(=O)n(Cc2ccccc2)c2nccnc12 [Compound C24]	4	0	3	3
C=CCn1c(=O)c(-c2ccccc2OC(F)(F)F)c(OC(=O)C(C)(C)C)c2nccnc21 [Compound C25]	0	0	2	0
CCn1c(=O)c(-c2ccccc2OC(F)(F)F)c(OC(=O)C(C)(C)C)c2nccnc21 [Compound C26]	0	0	2	0
CCn1c(=O)c(-c2ccccc2OC(F)(F)F)c(OC(C)=O)c2nccnc21 [Compound C27]	7	7	5	6
